Test results published in the supplement of paper PMC4862054.

How the values were obtained:
BT-474 = experiment: drug sensitivity score (DSS), CellTiter-Blue viability (DSS (AUC-based score)); higher = stronger viability inhibition; extreme values may be limits of the assay; settings: incubation time: 72 h
Procedure, shortened: (§1)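 Into 384-well plates carrying compound in a 5- or 9-concentration series went 20 µl of breast cancer cell suspension, followed by 72 h of incubation. Adding 2.5 µl CellTiter-Blue per well and incubating 2 h at 37 °C preceded fluorescence measurement at 560/590 nm. After normalisation of each plate to 0.1 % DMSO and a positive kill control, dose-response curves were fitted and the area beneath them taken as the drug sensitivity score.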

HCC1937 [1] = experiment: as above; settings: incubation time: 72 h
Procedure, shortened: as §1

SK-BR-3 [2] = experiment: as above; settings: incubation time: 72 h
Procedure, shortened: as §1

HDQ-P1 = experiment: as above; settings: incubation time: 72 h
Procedure, shortened: as §1

MDA-MB-453 = experiment: as above; settings: incubation time: 72 h
Procedure, shortened: as §1

CAL-148 [3] = experiment: as above; settings: incubation time: 72 h
Procedure, shortened: as §1

MDA-MB-436 [4] = experiment: as above; settings: incubation time: 72 h
Procedure, shortened: as §1

HCC1143 = experiment: as above; settings: incubation time: 72 h
Procedure, shortened: as §1

MDA-MB-468 = experiment: as above; settings: incubation time: 72 h
Procedure, shortened: as §1

CAL-51 [5] = experiment: as above; settings: incubation time: 72 h
Procedure, shortened: as §1

MFM-223 = experiment: as above; settings: incubation time: 72 h
Procedure, shortened: as §1

DU-4475 = experiment: as above; settings: incubation time: 72 h
Procedure, shortened: as §1

MDA-MB-231 = experiment: as above; settings: incubation time: 72 h
Procedure, shortened: as §1

BT-549 [6] = experiment: as above; settings: incubation time: 72 h
Procedure, shortened: as §1

CAL-120 [7] = experiment: as above; settings: incubation time: 72 h
Procedure, shortened: as §1

CAL-148 [8] = settings: 72 h
Procedure, shortened: (§2)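 Rows with a drug sensitivity score of zero were dropped, and EC50 was taken from the fitted percent-inhibition dose-response curve, censored at the highest concentration. Data were normalised on each plate to vehicle and a positive kill control and checked by Z'-factor. The assay seeded breast cancer cell lines in 20 µl onto 384-well plates pre-loaded with compound in 5 µl medium for 72 h, then added 2.5 µl CellTiter-Blue for 2 h at 37 °C and read fluorescence at 560/590 nm.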

CAL-51 [9] = settings: 72 h
Procedure, shortened: as §2

HCC1937 [10] = settings: 72 h
Procedure, shortened: as §2

SK-BR-3 [11] = settings: 72 h
Procedure, shortened: as §2

MDA-MB-436 [12] = settings: 72 h
Procedure, shortened: as §2

BT-549 [13] = settings: 72 h
Procedure, shortened: as §2

CAL-120 [14] = settings: 72 h
Procedure, shortened: as §2

SMILES	drug sensitivity score (BT-474)	drug sensitivity score (HCC1937 [1])	drug sensitivity score (SK-BR-3 [2])	drug sensitivity score (HDQ-P1)	drug sensitivity score (MDA-MB-453)	drug sensitivity score (CAL-148 [3])	drug sensitivity score (MDA-MB-436 [4])	drug sensitivity score (HCC1143)	drug sensitivity score (MDA-MB-468)	drug sensitivity score (CAL-51 [5])	drug sensitivity score (MFM-223)	drug sensitivity score (DU-4475)	drug sensitivity score (MDA-MB-231)	drug sensitivity score (BT-549 [6])	drug sensitivity score (CAL-120 [7])	EC50, CellTiter-Blue viability (CAL-148 [8]) [nM]	EC50, CellTiter-Blue viability (CAL-51 [9]) [nM]	EC50, CellTiter-Blue viability (HCC1937 [10]) [nM]	EC50, CellTiter-Blue viability (SK-BR-3 [11]) [nM]	EC50, CellTiter-Blue viability (MDA-MB-436 [12]) [nM]	EC50, CellTiter-Blue viability (BT-549 [13]) [nM]	EC50, CellTiter-Blue viability (CAL-120 [14]) [nM]
CN1CCC(COc2cnc(-c3cccc(Cn4nc(-c5cccc(C#N)c5)ccc4=O)c3)nc2)CC1	3.92	4.45	6.8	2.71	4.88	2.07	5.04	0	5.78	3.38	2.41	2.66	5.87	6.21	3.44	5800	4990	3980	2470	3530	2770	4950
CN(C)C/C=C/C(=O)Nc1cc2c(Nc3ccc(F)c(Cl)c3)ncnc2cc1O[C@H]1CCOC1 [Afatinib]	23.5	7.41	31.5	15.3	21.3	5.66	3.02	0	13	1.9	3.47	0	7.75	5.88	4.96	65	4750	1910	7.53	5410	2700	836
CN1CC[C@H](c2c(O)cc(O)c3c(=O)cc(-c4ccccc4Cl)oc23)[C@H](O)C1 [Alvocidib]	14.5	19.1	23.9	19	19.6	20.3	15.6	17.9	17.6	19.9	19.2	22.4	19.6	17.2	17.8	125	185	133	79.7	330	298	98.2
Nc1nc(Cl)nc2c1ncn2[C@H]1C[C@H](O)[C@@H](CO)O1 [Cladribine]	0	8.9	1.21	0	0	0.812	1.7	3.82	0	0.39	0	1.23	7.23	3.51	3.94	> 1000	> 1000	73.4	884	799	839	923
Nc1ccn([C@@H]2O[C@H](CO)[C@@H](O)[C@@H]2O)c(=O)n1 [Cytarabine]	0	13.9	8.27	0	6.62	19.2	4.91	6.95	6.23	15.4	0	12.3	7.18	7.65	7.69	32.3	266	117	487	156	12.8	246
Cc1c2oc3c(C)ccc(C(=O)N[C@@H]4C(=O)N[C@H](C(C)C)C(=O)N5CCC[C@H]5C(=O)N(C)CC(=O)N(C)[C@@H](C(C)C)C(=O)O[C@@H]4C)c3nc-2c(C(=O)N[C@@H]2C(=O)N[C@H](C(C)C)C(=O)N3CCC[C@H]3C(=O)N(C)CC(=O)N(C)[C@@H](C(C)C)C(=O)O[C@@H]2C)c(N)c1=O [Dactinomycin]	17.7	21.8	28.9	28.5	30.5	34.1	27.9	27.4	31.4	29.7	20.1	38.4	30.8	32.8	30.8	0.76	2.72	2.17	2.91	6.66	1.27	1.09
COc1cccc2c1C(=O)c1c(O)c3c(c(O)c1C2=O)C[C@@](O)(C(=O)CO)C[C@@H]3O[C@H]1C[C@H](N)[C@H](O)[C@H](C)O1 [Doxorubicin]	4.12	11.8	13.3	7	4.31	14.2	8.25	8.86	9.27	8.73	2.94	12.9	9.57	7.93	11.3	53.3	164	55.1	49.4	190	196	96.4
COc1cc(Nc2ncc3c(n2)-c2ccc(Cl)cc2C(c2c(F)cccc2OC)=NC3)ccc1C(=O)O [MLN8237]	4.4	17.8	16.7	14.2	16.6	15	6.09	10.4	15.8	18.1	9.51	22.9	10.4	8.32	10.7	184	111	24.6	14.9	145	918	593
S=c1[nH]cnc2nc[nH]c12 [Mercaptopurine]	0	4.84	0	0	0	0	0	0	5.53	0.87	0	0	0	0	4.1	–	3810	1550	–	–	–	9910
COc1cccc2cc(-c3nc([C@H]4CC[C@H](C(=O)O)CC4)n4ncnc(N)c34)[nH]c12 [OSI-027]	9.76	8.55	21.7	14.9	13.7	9.33	13.1	7.21	6.33	9.33	15.2	6.08	6.73	6.62	8.32	1640	1580	771	73.4	370	2580	1800
C=CCNC1=C2C[C@@H](C)C[C@H](OC)[C@H](O)[C@@H](C)/C=C(\C)[C@H](OC(N)=O)[C@@H](OC)/C=C\C=C(/C)C(=O)NC(=CC1=O)C2=O [Tanespimycin]	21.3	18.2	29.2	19.3	32.6	22.4	25.2	24.8	0	16.9	25.8	28.2	9.87	24.3	14.8	65.9	269	100	15.7	25.2	20.9	218
CO[C@H]1C[C@@H]2CC[C@@H](C)[C@@](O)(O2)C(=O)C(=O)N2CCCC[C@H]2C(=O)O[C@H]([C@H](C)C[C@@H]2CC[C@@H](OC(=O)C(C)(CO)CO)[C@H](OC)C2)CC(=O)[C@H](C)/C=C(\C)[C@@H](O)[C@@H](OC)C(=O)[C@H](C)C[C@H](C)/C=C/C=C/C=C/1C [Temsirolimus]	12.1	0	17.9	7.62	31.8	25.6	5.67	11.1	13.1	22.2	20.8	15.7	0	18.1	16.4	0.47	1.36	–	0.92	5.05	0.18	1.07
CC[C@]1(O)C[C@@H]2CN(CCc3c([nH]c4ccccc34)[C@@](C(=O)OC)(c3cc4c(cc3OC)N(C)[C@H]3[C@@](O)(C(=O)OC)[C@H](OC(C)=O)[C@]5(CC)C=CCN6CC[C@]43[C@@H]65)C2)C1 [Vinblastine]	21.8	32	35.2	18.2	20	18.7	18.7	19.4	21.6	16.1	13.1	13.7	27.7	25.2	32	13.2	26.5	0.67	0.3	5.02	3.04	0.3
CS(=O)(=O)c1ccc(C(=O)Nc2ccc(Cl)c(-c3ccccn3)c2)c(Cl)c1 [Vismodegib]	0	1.01	0	0	0	0	4.6	0	0	0	0	0	0	0	0	–	–	3920	–	58.8	–	–
